US20030194738A1, “Antisense oligonucleotide compositions and methods for the modulation of activating protein 1” (priority 1997, published 2003)
Strand notation (5' to 3'): a small letter for the sugar, then the base; units joined by * are phosphorothioate-linked, units joined directly phosphodiester-linked; [ ] holds rarer units or linkages, { } end groups; capitals alone tell only the bases. d = 2'-deoxy (DNA)

How the values were obtained:
c-fos mRNA = c-fos mRNA expression in TPA-induced A549 cells, Northern blotting; assay type: cell-based, human; settings: for c-fos mRNA % CONTROL: 400 nM oligonucleotide with LIPOFECTIN, control is TPA induction, at 1 hour, in A549 cells; for inhibition of c-fos mRNA expression: 400 nM oligonucleotide, TPA-induced A549 cells; for c-fos (expression, modified oligonucleotides): Table 10, TPA - no oligo = 100, basal = 3
Procedure: (§1) In order to evaluate the activity of potential c-fos and c-jun modulating oligonucleotides, A549 cells were grown in T-75 flasks until 80-90% confluent. (Cell line A549 is available from, inter alia, the American Type Culture Collection, Rockville, Md., as ATCC No. CCL-185.) At this time, the cells were washed twice with 10 mL of media (DMEM), followed by the addition of 5 mL of DMEM containing 20 μg/mL of LIPOFECTIN™ (i.e., DOTMA/DOPE (N-[1-(2,3-dioleyloxy)propyl]-N,N,N-[…] chloride/dioleoylphosphatidyl ethanolamine)). The oligonucleotides were added from a 10 μM stock solution to a final concentration of 400 nM, and the two solutions were mixed by swirling the flasks. After 4 hours at 37° C., the medium was replaced with DMEM containing 10% serum. At this point, 1 μM 12-O-tetradecanoylphorbol 13-acetate (TPA) was added to induce expression of c-fos and c-jun. Cells were extracted in guanidinium one hour later, and the c-fos and c-jun mRNA expression was determined by Northern blotting. Probes for human c-jun and c-fos were PCR products prepared using primers based on the published sequences thereof (respectively, Hattori et al., Proc. Natl. Acad. Sci. U.S.A., 1988, 85:9148, and Van Straaten et al., Proc. Natl. Acad. Sci. U.S.A., 1983, 80:3183).
Finally, it can also be seen from Table 5 that neither active oligonucleotide has any detectable effect on mRNA levels of the other active oligonucleotide's target.
Once oligonucleotides that modulate c-Fos or c-Jun are identified, derivative or modified oligonucleotides having the same sequence thereas are prepared. In order to evaluate the effect of chemical modifications to oligonucleotides to c-fos and c-jun, the modified oligonucleotides described in Tables 8 and 9 were prepared. The effect of the c-fos-targeted oligonucleotides on c-fos RNA levels were evaluated as described in Examples 2-3. […] Other modified oligonucleotides of the invention are evaluated in like fashion. In order to evaluate the effect of PNA antisense analogs, the PNA analogs of the invention are introduced into appropriate cell lines by microinjection according to the method of Hanvey et al. (Science, 1992, 258:1481). Intracellular delivery of PNA analogs is confirmed by the use of a fluorescently tagged PNA antisense analog conjugate such as, e.g., ISIS 14240.

c-jun mRNA = c-jun mRNA expression in TPA-induced A549 cells, Northern blotting; assay type: cell-based, human; settings: for c-jun mRNA % CONTROL: 400 nM oligonucleotide with LIPOFECTIN, control is TPA induction, at 1 hour, in A549 cells; for inhibition of c-jun mRNA expression: 400 nM oligonucleotide, TPA-induced A549 cells
Procedure: as §1, with “The oligonucleotides were added from a 10 μM stock solution to a final concentration of 400 nM, and the two solutions were mixed by swirling the flasks.” left out

Substance | c-fos mRNA % CONTROL (c-fos mRNA) [% CONTROL] | further results
TGC-TGC-TGC-CCT-TGC-GGT-GG (TGCTGCTGCCCTTGCGGTGG; antisense; all phosphorothioate, sugars by position and methylation of C not given here) [ISIS 10636] | 42 | –
ACC-AGC-CCG-GGA-GCC-ACA-GG (dA*dC*dC*dA*dG*dC*dC*dC*dG*dG*dG*dA*dG*dC*dC*dA*dC*dA*dG*dG; antisense) [ISIS 10572] | – | c-jun mRNA % CONTROL (c-jun mRNA): 39 % CONTROL
ACC-GTG-GGA-ATG-AAG-TTG-GC (ACCGTGGGAATGAAGTTGGC; antisense; all phosphorothioate, sugars by position and methylation of C not given here) [ISIS 10632] | 63 | –
AGC-TCC-CTC-CTC-CGG-TTG-CG (AGCTCCCTCCTCCGGTTGCG; antisense; all phosphorothioate, sugars by position and methylation of C not given here) [ISIS 10633] | 24 | inhibition of c-fos mRNA expression (c-fos mRNA): 76%
GTG-TCT-CGC-CGG-GCA-TCT-CG (dG*dT*dG*dT*dC*dT*dC*dG*dC*dC*dG*dG*dG*dC*dA*dT*dC*dT*dC*dG; antisense) [ISIS 10580] | – | c-jun mRNA % CONTROL (c-jun mRNA): 19 % CONTROL; inhibition of c-jun mRNA expression (c-jun mRNA): 81%
CAT-CGT-GGC-GGT-TAG-GCA-AA (CATCGTGGCGGTTAGGCAAA; antisense; all phosphorothioate, sugars by position and methylation of C not given here) [ISIS 10630] | 91 | –
CCC-CCA-CTT-CCG-CCC-ACT-AT (CCCCCACTTCCGCCCACTAT; antisense; DNA, all phosphorothioate, methylation of C not given here) [ISIS 10644] | 104 | –
CGG-TCA-CTG-CTC-GTT-CGC-TG (CGGTCACTGCTCGTTCGCTG; antisense; all phosphorothioate, sugars by position and methylation of C not given here) [ISIS 10629] | 72 | –
CGC-ACC-TCC-ACT-CCC-GCC-TC (dC*dG*dC*dA*dC*dC*dT*dC*dC*dA*dC*dT*dC*dC*dC*dG*dC*dC*dT*dC; antisense) [ISIS 10571] | – | c-jun mRNA % CONTROL (c-jun mRNA): 100 % CONTROL
CGC-CCC-GCC-GCC-GCT-GCT-CA (dC*dG*dC*dC*dC*dC*dG*dC*dC*dG*dC*dC*dG*dC*dT*dG*dC*dT*dC*dA; antisense) [ISIS 10579] | – | c-jun mRNA % CONTROL (c-jun mRNA): 41 % CONTROL
CCC-CTC-CAG-CAG-CTA-CCC-TT (CCCCTCCAGCAGCTACCCTT; antisense; all phosphorothioate, sugars by position and methylation of C not given here) [ISIS 10640] | 87 | –
A^SA^SG^ST^SC^SC^ST^ST^SG^SA^SG^SG^SC^SC^SC^SA^SC^SA^SG^SC (antisense AAGTCCTTGAGGCCCACAGC; all phosphorothioate, sugars by position and methylation of C not given here) [ISIS 11538] | – | c-fos (expression, modified oligonucleotides) (c-fos mRNA; A549 cells): 15
GGT-GCC-GGC-TGC-CTC-CCC-TT (GGTGCCGGCTGCCTCCCCTT; antisense; all phosphorothioate, sugars by position and methylation of C not given here) [ISIS 10638] | 22 | inhibition of c-fos mRNA expression (c-fos mRNA): 78%
TGC-TCG-CTG-CAC-ATG-CGG-TT (TGCTCGCTGCACATGCGGTT; antisense; all phosphorothioate, sugars by position and methylation of C not given here) [ISIS 10628] | 79 | –
CCT-CAC-AGG-GCC-AGC-AGC-GT (CCTCACAGGGCCAGCAGCGT; antisense; all phosphorothioate, sugars by position and methylation of C not given here) [ISIS 10637] | 35 | –
TGG-CAC-GGA-GCG-GGC-TGT-CT (TGGCACGGAGCGGGCTGTCT; antisense; all phosphorothioate, sugars by position and methylation of C not given here) [ISIS 10635] | 12 | inhibition of c-fos mRNA expression (c-fos mRNA): 88%
GAG-AAC-ATC-ATC-GTG-GCG-GT (GAGAACATCATCGTGGCGGT; antisense; all phosphorothioate, sugars by position and methylation of C not given here) [ISIS 10631] | 118 | –
CCT-GCC-TCG-GCC-TCC-CAA-AG (CCTGCCTCGGCCTCCCAAAG; antisense; DNA, all phosphorothioate, methylation of C not given here) [ISIS 10643] | 39 | –
CCC-TCC-CAG-GCT-CAA-GTC-AT (CCCTCCCAGGCTCAAGTCAT; antisense; DNA, all phosphorothioate, methylation of C not given here) [ISIS 10646] | 100 | –
CCC-CCG-ACC-GTC-TCT-CTT-CA (dC*dC*dC*dC*dC*dG*dA*dC*dC*dG*dT*dC*dT*dC*dT*dC*dT*dT*dC*dA; antisense) [ISIS 10581] | – | c-jun mRNA % CONTROL (c-jun mRNA): 24 % CONTROL; inhibition of c-jun mRNA expression (c-jun mRNA): 76%
TCC-CGT-CCC-CAG-AAG-CAG-TA (TCCCGTCCCCAGAAGCAGTA; antisense; DNA, all phosphorothioate, methylation of C not given here) [ISIS 10641] | 68 | –
CGC-GCC-CGG-CCT-GAA-AAT-TT (CGCGCCCGGCCTGAAAATTT; antisense; DNA, all phosphorothioate, methylation of C not given here) [ISIS 10642] | 87 | –
GCT-GCG-CCG-CCG-ACG-TGA-CG (dG*dC*dT*dG*dC*dG*dC*dC*dG*dC*dC*dG*dA*dC*dG*dT*dG*dA*dC*dG; antisense) [ISIS 10578] | – | c-jun mRNA % CONTROL (c-jun mRNA): 37 % CONTROL
TGC-CCC-TCA-GCC-CCC-GAC-GG (dT*dG*dC*dC*dC*dC*dT*dC*dA*dG*dC*dC*dC*dC*dC*dG*dA*dC*dG*dG; antisense) [ISIS 10583] | – | c-jun mRNA % CONTROL (c-jun mRNA): 20 % CONTROL; inhibition of c-jun mRNA expression (c-jun mRNA): 80%
TGG-TGC-CTG-CGT-GAT-ACT-CG (TGGTGCCTGCGTGATACTCG; antisense; DNA, all phosphorothioate, methylation of C not given here) [ISIS 10645] | 56 | –
A^SA^SG^ST^SC^SC^ST^ST^SG^SA^SG^SG^SC^SC^SChu SA^SC^SA^SG^SC (AAGTCCTTGAGGCCCACAGC; all phosphorothioate, sugars by position and methylation of C not given here; further chemistry not fully specified) [ISIS 11200] | – | effect on c-fos mRNA levels during TPA induction (in words) (c-fos mRNA; A549 cells): some enhancement of c-fos modulation; c-fos (expression, modified oligonucleotides) (c-fos mRNA; A549 cells): 5
GCC-ACA-CTC-AGT-GCA-ACT-CT (dG*dC*dC*dA*dC*dA*dC*dT*dC*dA*dG*dT*dG*dC*dA*dA*dC*dT*dC*dT; antisense) [ISIS 10570] | – | c-jun mRNA % CONTROL (c-jun mRNA): 62 % CONTROL
TTG-CAG-GCA-GGT-CGG-TGA-GC (TTGCAGGCAGGTCGGTGAGC; antisense; all phosphorothioate, sugars by position and methylation of C not given here) [ISIS 10634] | 42 | –
